# Experimental data as given in patent US20050203191A1, “1-Aminocyclohexane derivatives for the treatment of agitation and other behavioral disorders, especially those associated with alzheimer's disease” (priority 2004, published 2005).
# Test system: patients suffering from moderate to severe AD
# Assay: MZ-9605 (Therapy Example 1): 28-week double-blind placebo-controlled trial of memantine 20 mg/day
# Type: in vivo, human
# Method: Patients suffering from moderate to severe AD were randomized to placebo or 20 mg memantine daily for 28 weeks. Primary efficacy variables were the Clinician's Interview-Based Impression of Change plus caregiver input (CIBIC-Plus) and the Alzheimer's Disease Cooperative Study Activities of Daily Living Inventory modified for severe dementia (ADCS-ADL). Secondary efficacy variables included the Severe Impairment Battery (SIB) and Neuropsychiatric Inventory (NPI). Treatment differences between baseline and endpoint were assessed. Incomplete observations were imputed using the most recent previous observation (last observation carried forward—LOCF). Results were also analyzed using only the observed values, where missing values were not replaced (Observed Cases (OC) analysis). AD patients (N=252), (67 percent female, mean age=76 years), were randomized from 32 U.S. centers. Of these, 181 completed the study (72 percent) and were evaluated at week 28. Seventy-one patients discontinued treatment prematurely (42 placebo, 29 memantine). Change on the CIBIC-Plus favored memantine over placebo (P=0.06 LOCF, P=0.03 OC) Memantine-treated patients deteriorated less than placebo treated patients on the ADCS-ADL (P=0.02 LOCF, P=0.003 OC) and the SBI (P=<0.001 LOCF, P=0.002 OC). NPI change scores at week 28 were statistically significant. Depending on the type of analysis, this benefit was found in two domains: agitation (p=0.008 LOCF) and delusion (p=0.04 LOCF) or for agitation, only (p=0.023 OC). The finding for agitation also occurred in the dichotomised analyses for memantine-treated patients with and without behavioural symptoms at baseline. […] This study supports the antiglutamatergic treatment approach in moderate to severe AD, a phase associated with patient distress and caregiver burden, for which other treatments are not available and the treatment of behavioral disorders associated therewith.
# Community residing patients at least 50 years old with probable AD according to Diagnostic and Statistical Manual of Mental Disorders (DSM-IV) (American Psychiatric Association. Diagnostic and statistical manual of mental disorders. 4th ed. Washington: American Psychiatric Association; 1994.) and National Institute of Neurologic and Communicative Disorders and Stroke and AD and Related Disorders Association (NINCDS-ADRDA) criteria (McKhann G, Drachman D, Folstein M, Katzman R, Price D, Stadlan E M, Clinical diagnosis of Alzheimer's disease: report of the NINCDS-ADRDA Work Group under the auspices of Department of Health and Human Services Task Force on Alzheimer's Disease. Neurology 1984;34:939-44) were recruited. Eligibility criteria included: baseline Mini-Mental State Examination (MMSE) scores of 3-14 (Folstein M F, Folstein, S E, McHugh, P R, Mini-mental state. A practical method for grading the cognitive state of patients for the clinician. J Psychiat Res 1975;12:189-98.), stage 5 or 6 on the Global Deterioration Scale (GDS) (Reisberg B, Ferris S H, de Leon M J, Crook T, The Global Deterioration Scale for assessment of primary degenerative dementia. Am J Psychiatry 1982;139:1136-9.), and a stage of 6a or greater on the Functional Assessment Staging (FAST) (Sclan S G, Reisberg B, Functional assessment staging (FAST) in Alzheimer's disease: reliability, validity, and ordinality. Int Psychogeriatr 1992;4 Suppl 1:55-69.) instrument, signifying the presence of dementia-related deficits in the ability to perform one or more basic activities of daily living. Patients had reliable caregivers and recent (within 12 months) computed tomography (CT) or magnetic resonance imaging (MRI). […]
# [1] = MZ-9605, week 28, ITT LOCF, NPI total score <75%
# [2] = MZ-9605, week 28, ITT LOCF, NPI total score ≧=75% (top quartile)
# [3] = MZ-9605, week 28, ITT LOCF, antipsychotics usage “YES” (N = n)
# [4] = MZ-9605, week 28, ITT LOCF, antipsychotics usage “YES” (N = y)
# [5] = MZ-9605, week 28, ITT LOCF, baseline NPI agitation score <4
# [6] = MZ-9605, week 28, ITT LOCF, baseline NPI agitation score ≧=4
# [7] = MZ-9605, week 28, ITT LOCF, overall
smiles,measurement,setting,value
"CC12CC3CC(C)(C1)CC(N)(C3)C2 [memantine, 1-amino-3,5-dimethyl adamantane]",adverse events,"20 mg/day, 28 weeks",not associated with significant adverse events
same,patients who experienced an adverse event of agitation,"20 mg/day, 28 weeks",18%
same,premature discontinuations due to adverse events,"20 mg/day, prior to week 28",10%
same,Change (baseline to week 28) in NPI domain Aberr. Mot. Behavior,"ITT, OC",0.01
same,Change (baseline to week 28) in NPI domain Agitation/Aggression,"ITT, OC",−0.01
same,Change (baseline to week 28) in NPI domain Anxiety,"ITT, OC",0.51
same,Change (baseline to week 28) in NPI domain Apathy/Indifference,"ITT, OC",−0.25
same,Change (baseline to week 28) in NPI domain App./Eating Change,"ITT, OC",0.00
same,Change (baseline to week 28) in NPI domain Delusions,"ITT, OC",−0.38
same,Change (baseline to week 28) in NPI domain Depression/Dysphoria,"ITT, OC",0.00
same,Change (baseline to week 28) in NPI domain Disinhibition,"ITT, OC",−0.53
same,Change (baseline to week 28) in NPI domain Elation/Euphoria,"ITT, OC",0.18
same,Change (baseline to week 28) in NPI domain Hallucinations,"ITT, OC",0.47
same,Change (baseline to week 28) in NPI domain Irritabililty/Lability,"ITT, OC",0.04
same,Change (baseline to week 28) in NPI domain Night-time Behavior,"ITT, OC",0.05
same,"ADCS-ADL (change) LS Mean Diff., MEM v. PLA",[1],1.48
same,ADCS-ADL (change) mean,[1],−3.4
same,"CIBIC-PLUS Raw Mean Diff., MEM v. PLA",[1],−0.2
same,CIBIC-PLUS mean,[1],4.4
same,"SIB (change) LS Mean Diff., MEM v. PLA",[1],3.36
same,SIB (change) mean,[1],−5.6
same,"ADCS-ADL (change) LS Mean Diff., MEM v. PLA",[2],−3.47
same,ADCS-ADL (change) mean,[2],−2.1
same,"CIBIC-PLUS Raw Mean Diff., MEM v. PLA",[2],−0.4
same,CIBIC-PLUS mean,[2],4.6
same,"SIB (change) LS Mean Diff., MEM v. PLA",[2],13.3
same,SIB (change) mean,[2],0.03
same,"ADCS-ADL (change) LS Mean Diff., MEM v. PLA",[3],1.9
same,ADCS-ADL (change) mean,[3],−2.7
same,"CIBIC-PLUS Raw Mean Diff., MEM v. PLA",[3],−0.22
same,CIBIC-PLUS mean,[3],4.47
same,"SIB (change) LS Mean Diff., MEM v. PLA",[3],5.1
same,SIB (change) mean,[3],−4.1
same,"ADCS-ADL (change) LS Mean Diff., MEM v. PLA",[4],0.9
same,ADCS-ADL (change) mean,[4],−5.5
same,"CIBIC-PLUS Raw Mean Diff., MEM v. PLA",[4],−0.29
same,CIBIC-PLUS mean,[4],4.62
same,"SIB (change) LS Mean Diff., MEM v. PLA",[4],10.6
same,SIB (change) mean,[4],−2.5
same,"ADCS-ADL (change) LS Mean Diff., MEM v. PLA",[5],1.18
same,ADCS-ADL (change) mean,[5],−3.5
same,"CIBIC-PLUS Raw Mean Diff., MEM v. PLA",[5],−0.2
same,CIBIC-PLUS mean,[5],4.5
same,"SIB (change) LS Mean Diff., MEM v. PLA",[5],3.75
same,SIB (change) mean,[5],−4.8
same,"ADCS-ADL (change) LS Mean Diff., MEM v. PLA",[6],4.97
same,ADCS-ADL (change) mean,[6],−1.2
same,"CIBIC-PLUS Raw Mean Diff., MEM v. PLA",[6],−0.5
same,CIBIC-PLUS mean,[6],4.4
same,"SIB (change) LS Mean Diff., MEM v. PLA",[6],14.05
same,SIB (change) mean,[6],−0.5
same,"ADCS-ADL (change) LS Mean Diff., MEM v. PLA","MZ-9605, week 28, ITT LOCF, baseline NPI agitation score ≧=4, listed as MEM",−4.97
same,"ADCS-ADL (change) LS Mean Diff., MEM v. PLA",[7],2.06
same,ADCS-ADL (change) LS mean,[7],−3.02
same,CIBIC-PLUS LS mean,[7],4.48
same,"CIBIC-PLUS Raw Mean Diff., MEM v. PLA",[7],−0.25
same,"SIB (change) LS Mean Diff., MEM v. PLA",[7],5.91
same,SIB (change) LS mean,[7],−3.93
same,"CIBIC-Plus ratings, mean difference memantine v. placebo",at endpoint (LOCF),0.3
same,"ADCS-ADL total score, mean difference memantine v. placebo","endpoint, LOCF",−2.1
same,"SIB total score, mean difference memantine v. placebo","endpoint, LOCF",−2.1
same,"ADCS-ADL total score, mean difference memantine v. placebo","week 28, OC",−3.4
same,"CIBIC-Plus ratings, mean difference memantine v. placebo","week 28, OC",0.4
same,"SIB total score, mean difference memantine v. placebo","week 28, OC",−3.4
